Reference: patent US6228626A, “Sarcosine oxidase and process for producing the same” (priority 1998, dated 2001)

Biological target: mutant sarcosine oxidase from E. coli JM109 (pSO12 EH), FERM BP-6597; mutant of Bacillus sp. NS-129 sarcosine oxidase (wild type SEQ ID NO: 1) (Bacillus sp. NS-129, UniProt P23342)
Experiment: Km determination by sarcosine oxidase enzyme assay (formaldehyde/acetyl-acetone colour), Lineweaver-Burk plot
Format: biochemical
Conditions: read-out: Km value (for sarcosine), phosphate buffer pH7.7, 37° C., 10 minutes
Description: 0.25M phosphate buffer (0.1 ml, pH7.7), 0.2 M sarcosine solution (0.3 ml) and the enzyme solution with an appropriate concentration (0.1 ml) were mixed and reacted at 37° C. for 10 minutes. Then, 1.0 N acetic acid solution (0.5 ml) was added to the mixture to stop the reaction. To the mixture was added 3 ml of acetyl-acetone color-developing solution (acetyl-acetone, 0.2%(v/v) and diammonium hydrogenphosphate, 10%(w/v) ) (pH6.5) to develop the color at 37° C. for 40 minutes. The absorbance was determined at 410 nm by spectrophotometer. Then, the yield of the enzyme was estimated from the calibration curve of formaldehyde prepared beforehand. The amount of the enzyme which produces 1 μmole of formaldehyde per minute at 37° C. was defined as 1 unit.
The Km value of the enzyme was determined using the assay as described above.

Work on `CNCC(=O)O` [sarcosine] yielded a Km of roughly 3.5 mM.
